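Tested at 5 concentrations; 48 h exposure; 96-well plates; endpoints linearly interpolated, else capped at highest concentration. TGI: total growth inhibition.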
Columns and labels:
Test in all cases: NCI anticancer screen, dose series, 48 h
A498 renal = test system: A498 renal
A549 NSCLC = test system: A549 NSCLC
ACHN renal = test system: ACHN renal
HL-60(TB) leukemia = test system: HL-60(TB) leukemia
MALME-3M melanoma = test system: MALME-3M melanoma
NCI-H226 lung = test system: NCI-H226 lung
NCI-H460 lung = test system: NCI-H460 lung
NCI-H522 lung = test system: NCI-H522 lung
NCI/ADR-RES ovarian = test system: NCI/ADR-RES ovarian
OVCAR-5 ovarian = test system: OVCAR-5 ovarian
RXF 393 renal = test system: RXF 393 renal
SF-268 CNS = test system: SF-268 CNS
SR leukemia = test system: SR leukemia
SW-620 colon = test system: SW-620 colon
U251 CNS = test system: U251 CNS

Compound	TGI (A498 renal) [µM]	TGI (A549 NSCLC) [µM]	TGI (ACHN renal) [µM]	TGI (HL-60(TB) leukemia) [µM]	TGI (MALME-3M melanoma) [µM]	TGI (NCI-H226 lung) [µM]	TGI (NCI-H460 lung) [µM]	TGI (NCI-H522 lung) [µM]	TGI (NCI/ADR-RES ovarian) [µM]	TGI (OVCAR-5 ovarian) [µM]	TGI (RXF 393 renal) [µM]	TGI (SF-268 CNS) [µM]	TGI (SR leukemia) [µM]	TGI (SW-620 colon) [µM]	TGI (U251 CNS) [µM]
CCOC(=O)c1nc2ccccc2nc1NCc1cc(OC)c(OC)c(OC)c1	96.2	> 100	> 100	> 100	> 100	> 100	> 100	> 100	47.8	> 100	> 100	> 100	> 100	> 100	> 100
CC[C@@H]1CC[C@@H]2[C@H](CC[C@]3(C)[C@@H](OS(=O)(=O)c4ccc(C)cc4)CC[C@@H]23)[C@H]1COS(=O)(=O)c1ccc(C)cc1	> 100	> 100	> 100	> 100	> 100	> 100	> 100	–	> 100	–	> 100	> 100	> 100	> 100	> 100
CCOC(=O)Cn1c(=O)c2nc(SC)sc2n(CC)c1=S	–	> 100	> 100	> 100	> 100	> 100	> 100	> 100	> 100	> 100	> 100	> 100	> 100	> 100	> 100
Nc1cccc(/C=C/C(=O)N2CCN(CCOC(c3ccccc3)c3ccccc3)CC2)c1	31.6	34.3	31.6	32	31.2	39.8	30.6	28.7	37.3	34.6	28.7	35	30.9	35	29.3
COC(=O)C1CN=CN1CCc1ccccc1 (stereo not given)	> 100	> 100	> 100	> 100	> 100	> 100	> 100	> 100	> 100	> 100	> 100	–	> 100	> 100	> 100
COc1ccc(CC(=O)N2CCC3(C)CC(=O)CC=C23)cc1OC (stereo not given)	> 100	> 100	> 100	> 100	> 100	> 100	–	> 100	> 100	> 100	> 100	> 100	> 100	> 100	> 100
Cc1cccc(CP(Cc2cccc(C)c2)CC2(Cp3c4ccccc4c4ccccc43)COC2)c1	> 100	> 100	> 100	2.78	> 83.3	> 100	> 100	> 85.8	> 100	> 100	> 100	> 100	> 94.4	> 100	> 100

Reference: PubChem BioAssay (NCI)
